Experimental data as given in patent publication US5250734A, “Phenanthrene methanol compounds useful as antimalarial agents” (Belmac Corporation, priority 1992, dated 1993).
Entries after “also recorded” stand apart in the source; their conditions may differ. Where a name gives a salt, the structure may show the parent alone. Read-outs that look alike come from different tables or passages of the source.

Assays:
[1] = system: Plasmodium berghei KBG 173; assay: Survival of malaria infected mice, compound of Synthesis Example 2, halofantrine or mefloquine; format: in vivo, Plasmodium berghei KBG 173 in ICR/HA Swiss mice
[2] = system: Plasmodium berghei KBG 173; assay: Mean parasitemias for mice treated with the compound of Synthesis Example 2; format: in vivo, Plasmodium berghei KBG 173 in ICR/HA Swiss mice
[3] = Toxicity in malaria infected mice; format: in vivo, ICR/HA Swiss mice; conditions: 256 mg/kg/day
Text: (§1) Utilizing young ICR/HA Swiss mice and a standard inoculum of Plasmodium berghei KBG 173, it was possible to produce a uniform disease fatal to […] of untreated animals within 6 to 8 days with a mean survival time of 6.2 days. Test animals weighed from 18 to 22 grams but weight variations in any given experimental or control group were confined to 2-3 grams. All animals in any given test were approximately of the same age. Animals on test were housed in metal-topped plastic cages, given a standard laboratory diet and water ad libitum.
(§2) Test animals received an intraperitoneal injection of 0.5 ml of 1:100 dilution of heparinized heart's blood with a minimum of 90% parasitized cells (4×10^7 cells), drawn from donor mice infected one week earlier with Plasmodium berghei. The donor strain was maintained by weekly passages in separate groups of mice inoculated with a 0.5 ml of 1:500 dilution of heparinized heart's blood.
Test compounds were administered after dissolution or suspension in peanut oil. A single dose was given subcutaneously 72 hours after the mice were infected with Plasmodium berghei. At this time a 10-15 percent parasitemia had developed; the disease was well established but had not produced sufficient debility to alter the response of the host to toxic effects of the drug on test. […]

[4] = system: Plasmodium berghei KBG 173; assay: Survival of mice infected with drug-sensitive malaria, compound of Synthesis Example 3, halofantrine or mefloquine; format: in vivo, Plasmodium berghei KBG 173 in ICR/HA Swiss mice; conditions: SC
Text: The protocol which is set forth below is a well-established model for the treatment of malaria in human beings, and has been adopted by the U.S. Army Medial Research Command.
The system used for the compounds formed in Synthesis Examples 2 and 3 was based on comparisons of responses to test compounds by Plasmodium berghei KBG 173 malaria in mice as expressed in mean survival times and the mean survival times of untreated controls. Thus, compounds noted as active produced increases in the survival times of the treated animals that are significant when compared with the survival times of untreated controls. Since an established disease is less sensitive to treatment than a disease in the early stages of development, treatment was withheld until the parasitemia was relatively high in order to ensure a more reliable assay of activity and the selection of appropriate compounds for pre-clinical studies.
as §1, §2
(§3) Test compounds were administered after dissolution or suspension in peanut oil. A single dose was given subcutaneously 72 hours after the mice were infected with Plasmodium berghei. At this time a 10-15 percent parasitemia had developed; the disease was well established but had not produced sufficient debility to alter the response of the host to toxic effects of the drug on test. Since treatment was withheld for three days to permit the infection to become well-established and death occurred in untreated controls within 6-8 days, it was felt that this system presented a candidate compound with the maximum challenge.

[5] = system: Plasmodium berghei KBG 173; assay: as above; format: in vivo, Plasmodium berghei KBG 173 in ICR/HA Swiss mice
[6] = system: Plasmodium falciparum (chloroquine-sensitive and resistant strains); conditions: cited from earlier work
[7] = system: Plasmodium falciparum FCM 29/Cameroon; assay: In vitro drug susceptibility test ([3H]hypoxanthine uptake), strain FCM 29/Cameroon; format: cell-based
Procedure: (§4) Three strains of P. falciparum were used. FCM 29/Cameroon was highly chloroquine- and quinine-resistant (IC50 […] and 800 nM, respectively). The strain was cloned by a dilution method. FCM 6/Thailand was moderately chloroquine-resistant (IC50 600 nM), while L-3/Ivory Coast was chloroquine-susceptible (IC50 20 nM). The continuous in vitro culture of the parasites was maintained under standard conditions, as described by W. Trager and J. B. Jensen, "Human malaria parasites in continuous culture", Science 193, 673-675 (1976), with a gas phase of 5% O2, 5% CO2, and 90% N2.
(§5) The test compound was dissolved in methanol to a concentration of 1 mg/ml. Triplicates of seven serial dilutions were prepared to obtain the final concentrations ranging from 0.4 to 25 ng/ml and distributed in 24-well plates. […]
(§6) The testing procedures used for the in vitro assay in this study were those described by J. Le Bras and P. Deloron, "In vitro study of drug sensitivity of Plasmodium falciparum: an evaluation of a new semi-microtest", American Journal of Tropical Medicine and Hygiene 32: 447-451 (1983). […] The filter discs were dried and placed in a mini-vial with 1.5 ml of liquid scintillation cocktail (OptiScint `Hisafe`, LKB, Wallac, England) and the amount of radioactivity incorporated by the parasites was measured by a liquid scintillation counter (Wallac 1410, Pharmacia, Sweden). […]

[8] = system: Plasmodium falciparum FCM 6/Thailand; assay: In vitro drug susceptibility test ([3H]hypoxanthine uptake), strain FCM 6/Thailand; format: cell-based; conditions: mean ± SEM from four separate assays
Procedure: as §4, §5, §6

[9] = system: Plasmodium falciparum L-3/Ivory Coast; assay: In vitro drug susceptibility test ([3H]hypoxanthine uptake), strain L-3/Ivory Coast; format: cell-based; conditions: two values given
Procedure: as §4, §5, §6

Plasmodium falciparum = assay: In vitro antimalarial activity against established lines of P. falciparum (overall statement); format: cell-based
Procedure: The compound of Synthesis Example 1 was tested against the established lines of Plasmodium falciparum in vitro. Halofantrine hydrochloride was used as a reference drug.
as §4
The test compound was dissolved in methanol to a concentration of 1 mg/ml. […]
as §6

[10] = system: P. falciparum (multi-drug resistant Vietnam Smith strain and Cambodian Buchanan strain); conditions: short period, minimum of two doses; Vietnam Smith and Cambodian Buchanan strains; cited from earlier work
[11] = system: Chesson strain of P. vivax; conditions: short period, minimum of two doses; cited from earlier work
[12] = in vivo; cited from earlier work
Plasmodium berghei = assay: Positive control group of infected mice treated with pyrimethamine; format: in vivo, Plasmodium berghei in ICR/HA Swiss mice; conditions: dose levels not stated
Procedure: as §3

Compound: 1,3-dichloro-6-triflurormethyl-[1-hydroxy-3-(3-phenyl-1-propylamino)propyl] phenanthrene quinate [Synthesis Example 2]
- number of mice alive day 21/total ([1]; 1 mg/kg/day, PO): 3/7
- number of mice alive day 21/total ([1]; 1 mg/kg/day, SC): 3/7
- number of mice alive day 21/total ([1]; 4 mg/kg/day, PO): 7/7
- number of mice alive day 21/total ([1]; 4 mg/kg/day, SC): 5/7
- number of mice alive day 21/total ([1]; 16 mg/kg/day, PO): 6/7
- number of mice dead/day died ([1]; 16 mg/kg/day, PO): 1/21
- number of mice alive day 21/total ([1]; 16 mg/kg/day, SC): 7/7
- number of mice alive day 21/total ([1]; 64 mg/kg/day, PO): 7/7
- number of mice alive day 21/total ([1]; 64 mg/kg/day, SC): 7/7
- number of mice alive day 21/total ([1]; 256 mg/kg/day, PO): 1/7
- number of mice alive day 21/total ([1]; 256 mg/kg/day, SC): 5/7
- mean parasitemia ([2]; 4 mg/kg/day, oral): 31.2
- mean parasitemia ([2]; 4 mg/kg/day, subcut.): 45.2
- mean parasitemia ([2]; 16 mg/kg/day, oral): 16.3
- mean parasitemia ([2]; 16 mg/kg/day, subcut.): 10.7
- mean parasitemia ([2]; 64 mg/kg/day, oral): 0.14
- mean parasitemia ([2]; 64 mg/kg/day, subcut.): 0.4
- mean parasitemia ([2]; 256 mg/kg/day, oral): 1.00
- mean parasitemia ([2]; 256 mg/kg/day, subcut.): 0.00
- mean parasitemia ([2]; 1 (printed "l") mg/kg/day, oral): 19.3
- mean parasitemia ([2]; 1 (printed "l") mg/kg/day, subcut.): 61.7
- toxicity [3]: Toxicity clearly evident at this level

Compound: OC(c1cc(C(F)(F)F)nc2c(C(F)(F)F)cccc12)C1CCCCN1 (stereo not drawn) [Mefloquine, α-2-piperidinyl-2,8-bis(trifluorormethyl)-4-quinoline methanol]
- number of mice alive day 21/total ([1]; 1 mg/kg/day, PO): 0/7
- number of mice alive day 21/total ([1]; 4 mg/kg/day, PO): 3/7
- number of mice alive day 21/total ([1]; 16 mg/kg/day, PO): 7/7
- number of mice alive D + 18 / total ([4]; 1 mg/kg/day): 0/7
- number of mice alive D + 18 / total ([4]; 4 mg/kg/day): 4/7
- number of mice alive D + 18 / total ([4]; 16 mg/kg/day): 7/7
- number of mice alive D + 18 / total ([5]; 1 mg/kg/day, PO): 0/7
- number of mice alive D + 18 / total ([5]; 4 mg/kg/day, PO): 6/7
- number of mice dead/day died ([5]; 4 mg/kg/day, PO): 1/16
- number of mice dead/day died ([5]; 4 mg/kg/day, SC): 3/13
- number of mice alive D + 18 / total ([5]; 16 mg/kg/day, PO): 7/7
- antimalarial activity in humans [6]: exhibit antimalarial activity in humans against both chloroquine-sensitive and resistant strains

Compound: CCCCNCCC(O)c1cc2c(Cl)cc(Cl)cc2c2cc(C(F)(F)F)ccc12.Cl (centres unmarked) [Synthesis Example 1, 1,3-Dichloro-6-trifluoromethyl-9-[1-hydroxy-3-(butylamino)propyl] phenanthrene hydrochloride]
- IC50 [7]: 3.5 ± 0.6 ng/mL
- IC50 [8]: 3 ± 0.2 ng/mL
- IC50 ([9]; Plasmodium falciparum): 4.3 ng/mL
- IC50 ([9]; hydrochloride): 4.8 ng/mL
- activity compared with halofantrine (Plasmodium falciparum; P. falciparum, reference halofantrine): slightly less than that of halofantrine
- antimalarial activity (Plasmodium falciparum; chloroquine-susceptible and chloroquine-resistant strains, hydrochloride): high antimalarial activity against both chloroquine-susceptible and chloroquine-resistant strains; also recorded: potent antimalarial action at a low nanomolar range

Compound: Cl.OC(CCNCCCc1ccccc1)c1cc2c(Cl)cc(Cl)cc2c2cc(C(F)(F)F)ccc12 (centres unmarked) [Synthesis Example 3, 1,3-dichloro-6-trifluoromethyl-9-[1-hydroxy-3-(3-phenyl-1-propylamino)propyl] phenanthrene hydrochloride]
- number of mice alive D + 18 / total ([4]; 16 mg/kg/day): 7/7
- number of mice alive D + 18 / total ([5]; 1 mg/kg/day, PO): 2/7
- number of mice alive D + 18 / total ([5]; 1 mg/kg/day, SC): 1/7
- number of mice alive D + 18 / total ([5]; 4 mg/kg/day, PO): 6/7
- number of mice dead/day died ([5]; 4 mg/kg/day, PO): 1/8
- number of mice alive D + 18 / total ([5]; 4 mg/kg/day, SC): 7/7
- number of mice alive D + 18 / total ([5]; 16 mg/kg/day, PO): 7/7
- number of mice alive D + 18 / total ([5]; 64 mg/kg/day, PO): 7/7
- number of mice alive D + 18 / total ([5]; 64 mg/kg/day, SC): 7/7
- number of mice alive D + 18 / total ([5]; 256 mg/kg/day, PO): 6/7
- number of mice dead/day died ([5]; 256 mg/kg/day, PO): 1/4
- number of mice alive D + 18 / total ([5]; 256 mg/kg/day, SC): 7/7

Compound: CCCCN(CCCC)CCC(O)c1cc2c(Cl)cc(Cl)cc2c2cc(C(F)(F)F)ccc12 (centres unmarked) [halofantrine, 1-[1,3-dichlorotrifluoromethyl-9-phenanthryl]-3-di-(n-butyl)-aminopropanolhydrochloride]
- number of mice alive day 21/total ([1]; 1 mg/kg/day, PO): 4/7
- number of mice alive day 21/total ([1]; 1 mg/kg/day, SC): 2/7
- number of mice alive day 21/total ([1]; 4 mg/kg/day, PO): 6/7
- number of mice dead/day died ([1]; 4 mg/kg/day, PO): 1/19
- number of mice alive day 21/total ([1]; 4 mg/kg/day, SC): 7/7
- number of mice alive day 21/total ([1]; 16 mg/kg/day, PO): 6/7
- number of mice dead/day died ([1]; 16 mg/kg/day, PO): 1/19
- number of mice alive day 21/total ([1]; 16 mg/kg/day, SC): 6/7
- number of mice dead/day died ([1]; 16 mg/kg/day, SC): 1/21
- number of mice alive D + 18 / total ([4]; 1 mg/kg/day): 5/7
- number of mice alive D + 18 / total ([4]; 4 mg/kg/day): 7/7
- number of mice alive D + 18 / total ([4]; 16 mg/kg/day): 7/7
- number of mice alive D + 18 / total ([5]; 1 mg/kg/day, PO): 4/7
- number of mice dead/day died ([5]; 1 mg/kg/day, PO): 3/18
- number of mice alive D + 18 / total ([5]; 4 mg/kg/day, PO): 6/7
- number of mice dead/day died ([5]; 4 mg/kg/day, PO): 1/18
- number of mice alive D + 18 / total ([5]; 16 mg/kg/day, PO): 6/6
- antimalarial efficacy [10]: effective
- antimalarial efficacy [11]: effective
- systemic bioavailability [12]: problems with systemic bioavailability remained

Compound: CCc1nc(N)nc(N)c1-c1ccc(Cl)cc1 [pyrimethamine]
- survival time (Plasmodium berghei): definite increases in survival time

Compound: C=C[C@H]1C[N@@]2CC[C@H]1C[C@H]2[C@H](O)c1ccnc2ccc(OC)cc12 [quinine, reference compound]
- IC50 ([7]; read-out: IC50 (strain resistance)): 0.8 µM
